Data reported in ChEMBL document CHEMBL4354798, “Synthetic Approaches to the New Drugs Approved During 2017” (J Med Chem, 2019).

Columns and labels:
[1] = Half life in human Plasma; assay type: ADME, cell-free
[2] = Half life in human infected with HIV 20 to 40 mg, po for 7 days; assay type: ADME, organism-based; settings: in vivo
[3] = Antitumour activity in human FLT3 positive AML patient assessed as increase in survival time at 50 mg, po bid for 14 days co-treated with CTX relative to control; assay type: functional

Cc1cccc(C)c1N(CC(=O)Nc1ccc(-c2ncon2)cc1)C(=O)C1CCS(=O)(=O)CC1 [AMENAMEVIR] gave a half-life [1] of 8 h.
N#Cc1cc(Cl)cc(Oc2c(Br)ccc(CC(=O)Nc3ccc(S(N)(=O)=O)cc3Cl)c2F)c1 [DEPULFAVIRINE] showed a half-life [2] greater than 120 h.
For CCC(=O)[N-]S(=O)(=O)c1ccc(NC(=O)Cc2ccc(Br)c(Oc3cc(Cl)cc(C#N)c3)c2F)c(Cl)c1.[Na+] [ELSULFAVIRINE SODIUM], the half-life [2] was 2 h.
CO[C@@H]1[C@H](N(C)C(=O)c2ccccc2)C[C@H]2O[C@]1(C)n1c3ccccc3c3c4c(c5c6ccccc6n2c5c31)C(=O)NC4 [MIDOSTAURIN] showed an Activity [3] of 80%.
